Source: article PMC5617480 (Oncotarget, 2017)

Key:
BEL-7404 xenograft = conditions: BEL-7404 model, 5-Fu 20.0 mg/kg per two days iv
Protocol: In vivo anticancer efficacy of chiral platinum(II) complex 6 was evaluated using BEL-7404 and BEL-7402 xenograft mouse models. BEL-7404 and BEL-7402 cells were injected into nude mice. The mice were randomized into the control group, complex 6-treated group, and the positive control group (n = 6/group). When the volume of tumor was about 80 mm^3, complex 6 was given at a high (8 mg/kg) and low (4 mg/kg) dosage daily for 18 days, 5-FU (20 mg/kg every two days) and Cisplatin (2 mg/kg every two days) were used as a positive control in the BEL-7404 and BEL-7402 xenograft model, respectively.
To evaluate the vivo anticancer efficacy of complex 6, BEL-7404 and BEL-7402 xenograft mouse models (BALB/c nude mice, female for BEL-7404 model, 17–20 g, 6–7 weeks old; male for BEL-7402 model, 18-21 g, 6–7 weeks old) were used. Furthermore, animal used, maximum tolerated dose (MTD) analysis, acute toxicity studies and antitumor activity toward BEL-7404 and BEL-7402 models in vivo of complex 6, was similar to Chen reported.
H21T (3.5 pmol; 5’-G [T AG ] -3’), primer TS (18 pmol; tumor tissue were cut into about 1.5 mm3 small pieces, and […]
5’-[…]-3’), KCl (63 mM), then transplanted into the right flank of nude mice. When EGTA (1 mM), MgCl (1.5 mM), Tween-20 (0.005%), the average tumors reach a volume of about 80 mm3, the […]
primer NT (7.5 pmol; 5’-[…]-3’), mice were randomized into 4 groups (n=6), received the […]
TSNT internal control (0.01 amol; 5’-[…] following treatments: (a) control, received saline solvent; […]
-3’), primer (b) complex 6 at doses of 8.0 mg/kg daily (dissolve in […]
Cxext (22.5 pmol; 5’-[…] saline, iv); (c) complex 6 at doses of 4.0 mg/kg daily; […]
[…]-3’), Taq DNA polymerase (2.5 U), and (d) in BEL-7404 model, 5-fluorouracil (5-Fu) as positive telomerase (100 ng). Complexes or/and distilled water control at 20 mg/kg per two days (dissolve in saline, iv); was added ([…]). PCR was performed in an Eppendorf in BEL-7402 model, cisplatin as positive control at 2 mg/ Master cycler equipped with a hot lid and incubated for kg per two days (dissolve in saline, iv).
30.0 min at 30 °C, followed by 92 °C 30 s, 52 °C 30 s, The tumor volumes and body weight was monitored and 72°C 30 s for 30.0 cycles. After amplification, 8.0 every 3 days, The tumor volumes were estimated by […] loading buffer (5×TBE buffer, 0.2% xylene cyanol, measuring the two dimensions of the tumors using caliper and 0.2% bromophenol blue ) were added to the reaction. and calculated by the formula 1 [1, 6, 14]:
An […] of aliquot was loaded onto a nondenaturing V = (length × width2)/2(1) acrylamide gel (19:1, 16%) in 1×TBE buffer and resolved at 200.0 V for 1.0 h. Gels were fixed and then stained with On day 18, the mice were sacrificed, and tumor AgNO3 [8–11]. tissue were dissected out and weighted, tumor growth inhibition rate calculated using formulas 2 and 3 [1, 6,
In order to verify whether complexes 4–6 can TGI (%) = (ΔVc − ΔVt)/ΔVc×100%(2) directly regulate c-myc promoter (Pu27) and the IR(%) = (Wc − Wt)/Wc×100%(3) expression of hTRET in BEL-7404 cells, consequently Where ΔVt = tumor volumefinal −tumor volumeinitial inhibiting the telomerase function, we constructed EGFP for compound treated group, ΔVc=tumor volumefinal − and c-myc gene vectors according to those illustrated tumor volumeinitial for vehicle control group; Wt and Wc in Chalfie, Chen and He previous work. The detailed mean the average tumor weight of complex-treated and procedures for the construct of gene (c-myc and EGFP vehicle controlled group respectively. genes) vectors, and the method of transfection assays REFERENCES have been reported by Chalfie, Chen and He [1, 6, 9, 12,

Hep-G2 cells = assay: Cytotoxicity assay (MTT assay); type: cell-based, human; conditions: Hep-G2, 100 μM
HeLa cells = assay: Cytotoxicity assay (MTT assay); type: cell-based, human; conditions: 100 μM
MGC80-3 cells = assay: Cytotoxicity assay (MTT assay); type: cell-based, human; conditions: MGC80-3, 100 μM
BEL-7404 cells = assay: Cytotoxicity assay (MTT assay); type: cell-based, human; conditions: BEL-7404, 100 μM
BEL-7402 cells = assay: Cytotoxicity assay (MTT assay); type: cell-based, human; conditions: BEL-7402, 100 μM
A549 cells = assay: Cytotoxicity assay (MTT assay); type: cell-based, human; conditions: A549, 100 μM

O=c1[nH]cc(F)c(=O)[nH]1 [5-FU, 5-fluorouracil, reference compound]
Tumor volume (start) (BEL-7404 xenograft): 75.95±25.57 mm3 | Average tumor weight (mean ± SD g) (BEL-7404 xenograft; day 18): 0.47 ± 0.20 g | Tumor volume (end) (BEL-7404 xenograft; day 18): 576.17±297.34 mm3

C[S](C)(=O)[Pt]([Cl])([Cl])[S](C)(C)=O [cis-Pt(DMSO)2Cl2]
Inhibitory rates (%) (Hep-G2 cells; 24 h): 10.1 ± 0.4% | Inhibitory rates (%) (Hep-G2 cells; 48 h): 13.8 ± 0.7% | Inhibitory rates (%) (HeLa cells; 24 h): 19.8 ± 0.7% | Inhibitory rates (%) (HeLa cells; 48 h): 25.4 ± 1.2% | Inhibitory rates (%) (MGC80-3 cells; 24 h): 10.2 ± 1.3% | Inhibitory rates (%) (MGC80-3 cells; 48 h): 30.4 ± 0.8% | Inhibitory rates (%) (BEL-7404 cells; 24 h): 5.3 ± 1.5% | Inhibitory rates (%) (BEL-7404 cells; 48 h): 8.0 ± 0.7% | Inhibitory rates (%) (BEL-7402 cells; 24 h): 8.6 ± 2.4% | Inhibitory rates (%) (BEL-7402 cells; 48 h): 12.3 ± 0.4% | Inhibitory rates (%) (A549 cells; 24 h): 15.1 ± 1.7% | Inhibitory rates (%) (A549 cells; 48 h): 22.3 ± 0.5%
